Measured values from US6855710B2, “Substituted indolines with an inhibitory effect on various kinases and complexes of CDKs” (Boehringer Ingelheim Pharma KG, priority 1998, dated 2005).

Row | melting point | Compound
1 | 129 to 131 °C | CCOC(=O)CCNCc1ccc(N/C(=C2\C(=O)Nc3ccc([N+](=O)[O-])cc32)c2ccccc2)cc1 [Example 241, (Z)-3-{1-[4-(2-ethoxycarbonyl-ethylaminomethyl)-phenylamino]-1-phenyl-methylidene}-5-nitro-2-indolinone]
2 | 193 to 194 °C | COc1cccc(/C(Nc2ccc(CN(C)C)cc2)=C2/C(=O)Nc3ccccc32)c1 [Example 217, (Z)-3-[1-(4-dimethylaminomethyl-phenylamino)-1-(3-methoxyphenyl)-methylidene]-2-indolinone]
3 | > 370 °C | Cl.Cl.O=C1Nc2ccc([N+](=O)[O-])cc2/C1=C(/Nc1ccc(CN2CCNCC2)cc1)c1ccccc1
4 | 218 °C | O=CN(CCN1CCOCC1)c1ccc(N/C(=C2\C(=O)Nc3ccccc32)c2ccccc2)cc1 [Example 347, (Z)-3-{1-[4-(N-(2-morpholinoethyl)-N-formyl-amino)-phenylamino]-1-phenyl-methylidene}-2-indolinone]
5 | 249 to 250 °C | CS(=O)(=O)N(CCN1CCOCC1)c1ccc(N/C(=C2\C(=O)Nc3ccccc32)c2ccccc2)cc1 [Example 189, (Z)-3-{1-[4-(N-(2-morpholinoethyl)-N-methylsulphonyl-amino)-phenylamino]-1-phenyl-methylidene}-2-indolinone]
6 | > 300 °C | O=C1Nc2ccc([N+](=O)[O-])cc2/C1=C(/Nc1ccc(N2CCOCC2)cc1)c1ccccc1 [Example 80, (Z)-3-[1-(4-morpholinophenylamino)-1-phenyl-methylidene]-5-nitro-2-indolinone]
7 | 275 to 277 °C | CCCC(=O)N(CCN(C)C)c1ccc(N/C(=C2\C(=O)Nc3ccc([N+](=O)[O-])cc32)c2ccccc2)cc1 [Example 331, (Z)-3-{1-[4-(N-(2-dimethylaminoethyl)-N-propylcarbonyl-amino)-phenylamino]-1-phenyl-methylidene}-5-nitro-2-indolinone]
8 | 155 °C | O=C1Nc2ccc([N+](=O)[O-])cc2/C1=C(/Nc1ccc(CN2CCC(O)CC2)cc1)c1ccccc1 [Example 168, (Z)-3-{1-[4-(4-hydroxypiperidinomethyl)-phenylamino]-1-phenyl-methylidene}-5-nitro-2-indolinone]
9 | 170 to 172 °C | CCS(=O)(=O)N(CC(=O)N(C)CCN(C)C)c1ccc(N/C(=C2\C(=O)Nc3ccccc32)c2ccccc2)cc1 [Example 302, (Z)-3-{1-[4-(N—((N-(2-dimethylaminoethyl)-N-methyl-amino)-carbonylmethyl)-N-ethylsulphonyl-amino)-phenylamino]-1-phenyl-methylidene}-2-indolinone]
10 | 264 to 268 °C | CC(=O)N(CC(=O)N(C)C)c1ccc(N/C(=C2\C(=O)Nc3ccccc32)c2ccccc2)cc1 [Example 355, (Z)-3-{1-[4-(N-dimethylaminocarbonylmethyl-N-acetyl-amino)-phenylamino]-1-phenyl-methylidene}-2-indolinone]
11 | 195 to 197 °C | CN(CC(=O)N(C)c1ccc(N/C(=C2\C(=O)Nc3ccccc32)c2ccccc2)cc1)Cc1ccccc1 [Example 370, (Z)-3-{1-[4-(N—(N-benzyl-N-methyl-aminomethylcarbonyl)-N-methyl-amino)-phenylamino]-1-phenyl-methylidene}-2-indolinone]
12 | 296 to 298 °C | CC(C)C(=O)N(CCN(C)C)c1ccc(N/C(=C2\C(=O)Nc3ccc([N+](=O)[O-])cc32)c2ccccc2)cc1 [Example 330, (Z)-3-{1-[4-(N-(2-dimethylaminoethyl)-N-isopropylcarbonyl-amino)-phenylamino]-1-phenyl-methylidene}-5-nitro-2-indolinone]
13 | 208 to 209 °C | Cc1ccc(/C(Nc2ccc(CN(C)C)cc2)=C2/C(=O)Nc3ccccc32)cc1 [Example 211, (Z)-3-[1-(4-dimethylaminomethyl-phenylamino)-1-(p-tolyl)-methylidene]-2-indolinone]
14 | 180 °C | CC(=O)NCc1ccc(/C(Nc2cccc(N(CCN(C)C)S(C)(=O)=O)c2)=C2/C(=O)Nc3ccccc32)cc1 [Example 423, (Z)-3-{1-[3-(N-(2-dimethylaminoethyl)-N-methylsulphonyl-amino)-phenylamino]-1-(4-acetylaminomethyl-phenyl)-methylidene}-2-indolinone]
15 | 220 °C | CN(C)C(=O)CN(c1cccc(N/C(=C2\C(=O)Nc3ccccc32)c2ccc(CN)cc2)c1)S(C)(=O)=O [Example 420, (Z)-3-{1-[3-(N-dimethylaminocarbonylmethyl-N-methylsulphonyl-amino)-phenylamino]-1-(4-aminomethyl-phenyl)-methylidene}-2-indolinone]
16 | 238 °C | CC(=O)NCc1cccc(N/C(=C2\C(=O)Nc3ccc([N+](=O)[O-])cc32)c2ccccc2)c1 [Example 138, (Z)-3-[1-(3-acetylaminomethyl-phenylamino)-1-phenyl-methylidene]-5-nitro-2-indolinone]
17 | 213 to 216 °C | CN(C)C(=O)CN(c1cccc(N/C(=C2\C(=O)Nc3ccccc32)c2ccccc2)c1)S(C)(=O)=O [Example 321, (Z)-3-{1-[3-(N-dimethylaminocarbonylmethyl-N-methylsulphonyl-amino)-phenylamino]-1-phenyl-methylidene}-2-indolinone]

Row | melting point | Compound
18 | > 260 °C (dec.) | CC(=O)O.N=C(N)c1ccc(N/C(=C2\C(=O)Nc3ccccc32)c2ccccc2)cc1 [Example 62, (Z)-3-{1-[N-(4-amidinophenyl)-amino]-1-phenyl-methylidene}-2-indolinone-hydroacetate]
19 | 289 to 290 °C | O=C1Nc2ccc([N+](=O)[O-])cc2/C1=C(/Nc1ccc(CN2CC[S+]([O-])CC2)cc1)c1ccccc1 [Example 230, (Z)-3-{1-[4-((1-oxothiomorpholino)-methyl)-phenylamino]-1-phenyl-methylidene}-5-nitro-2-indolinone]
20 | 231 °C | O=C1Nc2ccc([N+](=O)[O-])cc2/C1=C(/Nc1ccc(CNC2CCCC2)cc1)c1ccccc1 [Example 276, (Z)-3-{1-[4-(cyclopentylaminomethyl)-phenylamino]-1-phenyl-methylidene}-5-nitro-2-indolinone]
21 | 290 to 295 °C | O=C(CN1CCOCC1)NCc1ccc(N/C(=C2\C(=O)Nc3ccc([N+](=O)[O-])cc32)c2ccccc2)cc1 [Example 141, (Z)-3-[1-(4-morpholinomethylcarbonylaminomethyl-phenylamino)-1-phenyl-methylidene]-5-nitro-2-indolinone]
22 | 237 °C (dec.) | CN(CC(=O)O)S(=O)(=O)c1ccc(N/C(=C2\C(=O)Nc3ccccc32)c2ccccc2)cc1 [Example 409, (Z)-3-{1-[4-(N-carboxymethyl-N-methyl-aminosulphonyl)-phenylamino]-1-phenyl-methylidene}-2-indolinone]
23 | 218 to 221 °C | COc1cccc(N/C(=C2\C(=O)Nc3ccccc32)c2ccccc2)c1 [Example 3, (Z)-3-[1-(3-methoxy-phenylamino)-1-phenyl-methylidene]-2-indolinone]
24 | 194 to 195 °C | CCOC(=O)c1cccc(N/C(=C2\C(=O)Nc3ccccc32)c2ccccc2)c1 [Example 14, (Z)-3-[1-(3-ethoxycarbonyl-phenylamino)-1-phenyl-methylidene]-2-indolinone]
25 | 133 to 135 °C | CN(C)C(=O)CN(c1ccc(N/C(=C2\C(=O)Nc3ccccc32)c2ccccc2)cc1)S(=O)(=O)Cc1ccccc1 [Example 207, (Z)-3-{1-[4-(N-dimethylaminocarbonylmethyl-N-benzylsulphonyl-amino)-phenylamino]-1-phenyl-methylidene}-2-indolinone]
26 | 236 to 238 °C | CC(=O)Nc1ccc(N/C(=C2\C(=O)Nc3ccccc32)c2ccccc2)cc1 [Example 31, (Z)-3-[1-(4-acetylamino-phenylamino]-1-phenyl-methylidene]-2-indolinone]
27 | 115 to 117 °C | CN(c1ccc(N/C(=C2\C(=O)Nc3ccccc32)c2ccccc2)cc1)S(=O)(=O)CCN1CCOCC1 [Example 384, (Z)-3-{1-[4-(N-(2-morpholinoethylsulphonyl)-N-methyl-amino)-phenylamino]-1-phenyl-methylidene}-2-indolinone]
28 | 255 to 256 °C | CC(=O)NCC(=O)N(C)c1ccc(N/C(=C2\C(=O)Nc3ccccc32)c2ccccc2)cc1 [Example 367, (Z)-3-{1-[4-(N-acetylaminomethylcarbonyl-N-methyl-amino)-phenylamino]-1-phenyl-methylidene}-2-indolinone]
29 | 224 to 227 °C | CN(C(=O)C(F)(F)F)c1cccc(N/C(=C2\C(=O)Nc3ccccc32)c2ccccc2)c1 [Example 36, (Z)-3-{1-[3-(N-trifluoroacetyl-N-methyl-amino)-phenylamino]-1-phenyl-methylidene}-2-indolinone]
30 | 228 °C | CCCC(=O)N(CCN1CCOCC1)c1ccc(N/C(=C2\C(=O)Nc3ccc([N+](=O)[O-])cc32)c2ccccc2)cc1 [Example 337, (Z)-3-{1-[4-(N-(2-morpholinoethyl)-N-propylcarbonyl-amino)-phenylamino]-1-phenyl-methylidene}-5-nitro-2-indolinone]
31 | 260 to 261 °C | CN(C)CCNS(=O)(=O)c1ccc(N/C(=C2\C(=O)Nc3ccc([N+](=O)[O-])cc32)c2ccccc2)cc1 [Example 401, (Z)-3-{1-[4-(2-dimethylamino-ethylaminosulphonyl)-phenylamino]-1-phenyl-methylidene}-5-nitro-2-indolinone]
32 | 246 to 249 °C | COCC(=O)N(CCN(C)C)c1ccc(N/C(=C2\C(=O)Nc3ccccc32)c2ccccc2)cc1 [Example 451, (Z)-3-[1-(4-(N-(2-dimethylaminoethyl)-N-methoxymethylcarbonyl-amino)-phenylamino)-1-phenyl-methylidene]-2-indolinone]
33 | 97 to 99 °C | CN(C(=O)CCN)c1ccc(N/C(=C2\C(=O)Nc3ccccc32)c2ccccc2)cc1.Cl

Row | Compound | melting point
34 | CC(C)(C)OC(=O)NCc1ccc(N/C(=C2\C(=O)Nc3ccc([N+](=O)[O-])cc32)c2ccc(CNC(=O)c3ccccc3C(=O)O)cc2)cc1 [Example 147, (Z)-3-{1-[4-tert.butoxycarbonylaminomethyl-phenylamino]-1-[4-(2-carboxyphenyl)-carbonylaminomethyl-phenyl]-methylidene}-5-nitro-2-indolinone] | 138 °C (dec.)
